Reference: PubChem BioAssay AID1963959 (Molecular Pharmacology Branch, DTP, NCI, 2024)

System: T-47D spheroids with HUVEC/MSC, viability
Experiment: Anticancer human tumor T-47D cell line growth inhibition [PI3K];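 note: spheroids exposed to agents for seven days before reading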;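 for viability, T/C: percent of DMSO vehicle control luminescence so 100% = untreated growth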
Conditions: for IC50: curve of first compound; for viability, T/C: stronger effect = lower value
Method in brief: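 Combination activity was assessed by viability in multicellular tumor spheroids carrying HUVEC and MSC components. Agents were tested with PI3K inhibitors from a Cmax-based top dose (or 10 microM) downward in half-log increments.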

[1] = second compound 0.0316 µM, first compound 0.0316 µM
[2] = second compound 0.0316 µM, first compound 0.1 µM
[3] = second compound 0.0316 µM, first compound 0.316 µM
[4] = second compound 0.0316 µM, first compound 1 µM
[5] = second compound 0.0316 µM, first compound 3.16 µM
[6] = second compound 0.0316 µM, first compound 10 µM
[7] = second compound 0.1 µM, first compound 0.0316 µM
[8] = second compound 0.1 µM, first compound 0.1 µM
[9] = second compound 0.1 µM, first compound 0.316 µM
[10] = second compound 0.1 µM, first compound 1 µM
[11] = second compound 0.1 µM, first compound 3.16 µM
[12] = second compound 0.1 µM, first compound 10 µM
[13] = second compound 0.316 µM, first compound 0.0316 µM
[14] = second compound 0.316 µM, first compound 0.1 µM
[15] = second compound 0.316 µM, first compound 0.316 µM
[16] = second compound 0.316 µM, first compound 1 µM
[17] = second compound 0.316 µM, first compound 3.16 µM
[18] = second compound 0.316 µM, first compound 10 µM
[19] = second compound 1 µM, first compound 0.0316 µM
[20] = second compound 1 µM, first compound 0.1 µM
[21] = second compound 1 µM, first compound 0.316 µM
[22] = second compound 1 µM, first compound 1 µM
[23] = second compound 1 µM, first compound 3.16 µM
[24] = second compound 1 µM, first compound 10 µM
[25] = second compound 0.00316 µM, first compound 0.0316 µM
[26] = second compound 0.00316 µM, first compound 0.1 µM
[27] = second compound 0.00316 µM, first compound 0.316 µM
[28] = second compound 0.00316 µM, first compound 1 µM
[29] = second compound 0.00316 µM, first compound 3.16 µM
[30] = second compound 0.00316 µM, first compound 10 µM
[31] = second compound 0.01 µM, first compound 0.0316 µM
[32] = second compound 0.01 µM, first compound 0.1 µM
[33] = second compound 0.01 µM, first compound 0.316 µM
[34] = second compound 0.01 µM, first compound 1 µM
[35] = second compound 0.01 µM, first compound 3.16 µM
[36] = second compound 0.01 µM, first compound 10 µM

Cn1ncc(Cl)c1-c1cc(C(=O)NC(CN)Cc2cccc(F)c2)sc1Cl (stereo not drawn) + CC(Nc1ncnc2nc[nH]c12)c1cc2cccc(Cl)c2c(=O)n1-c1ccccc1
IC50 (second compound 0.0316 µM): > 10 µM | IC50 (second compound 0.1 µM): > 10 µM | IC50 (second compound 0.316 µM): > 10 µM | IC50 (second compound 1 µM): > 10 µM | IC50 (second compound 3.16 µM): > 10 µM | IC50 (second compound 10 µM): > 10 µM | viability, T/C [1]: 101% | viability, T/C [2]: 101% | viability, T/C [3]: 84.2% | viability, T/C [4]: 76.6% | viability, T/C [5]: 64.2% | viability, T/C [6]: 66.6% | viability, T/C [7]: 100% | viability, T/C [8]: 79.2% | viability, T/C [9]: 80.2% | viability, T/C [10]: 76.9% | viability, T/C [11]: 70.8% | viability, T/C [12]: 66.6% | viability, T/C [13]: 104% | viability, T/C [14]: 89.1% | viability, T/C [15]: 91.5% | viability, T/C [16]: 68.1% | viability, T/C [17]: 72.4% | viability, T/C [18]: 68.3% | viability, T/C [19]: 103% | viability, T/C [20]: 94.7% | viability, T/C [21]: 81.2% | viability, T/C [22]: 67.1% | viability, T/C [23]: 58.7% | viability, T/C [24]: 74.1% | viability, T/C (second compound 3.16 µM, first compound 0.0316 µM): 82.9% | viability, T/C (second compound 3.16 µM, first compound 0.1 µM): 99.3% | viability, T/C (second compound 3.16 µM, first compound 0.316 µM): 79.9% | viability, T/C (second compound 3.16 µM, first compound 1 µM): 57.6% | viability, T/C (second compound 3.16 µM, first compound 3.16 µM): 72.8% | viability, T/C (second compound 3.16 µM, first compound 10 µM): 69.1% | viability, T/C (second compound 10 µM, first compound 0.0316 µM): 97.8% | viability, T/C (second compound 10 µM, first compound 0.1 µM): 92.2% | viability, T/C (second compound 10 µM, first compound 0.316 µM): 77.5% | viability, T/C (second compound 10 µM, first compound 1 µM): 68.4% | viability, T/C (second compound 10 µM, first compound 3.16 µM): 66.9% | viability, T/C (second compound 10 µM, first compound 10 µM): 71.4%

CNC(=O)c1ccc(N2C(=S)N(c3ccc(C#N)c(C(F)(F)F)c3)C(=O)C2(C)C)cc1F + COc1c(OCCCN2CCOCC2)ccc2c3n(c(=NC(=O)c4cnc(N)nc4)nc12)CCN3
IC50 (second compound 0.00316 µM): > 10 µM | IC50 (second compound 0.01 µM): > 10 µM | IC50 (second compound 0.0316 µM): > 10 µM | IC50 (second compound 0.1 µM): < 0.0316 µM | IC50 (second compound 0.316 µM): < 0.0316 µM | IC50 (second compound 1 µM): < 0.0316 µM | viability, T/C [25]: 122% | viability, T/C [26]: 84.3% | viability, T/C [27]: 87.8% | viability, T/C [28]: 81.1% | viability, T/C [29]: 98.8% | viability, T/C [30]: 86.5% | viability, T/C [31]: 102% | viability, T/C [32]: 90.3% | viability, T/C [33]: 105% | viability, T/C [34]: 104% | viability, T/C [35]: 81.3% | viability, T/C [36]: 91.2% | viability, T/C [1]: 72.3% | viability, T/C [2]: 80% | viability, T/C [3]: 72.1% | viability, T/C [4]: 69.1% | viability, T/C [5]: 64.4% | viability, T/C [6]: 62% | viability, T/C [7]: 37.6% | viability, T/C [8]: 44.8% | viability, T/C [9]: 40% | viability, T/C [10]: 46% | viability, T/C [11]: 37.2% | viability, T/C [12]: 43.8% | viability, T/C [13]: 18.9% | viability, T/C [14]: 21.8% | viability, T/C [15]: 16.7% | viability, T/C [16]: 19.6% | viability, T/C [17]: 18.1% | viability, T/C [18]: 14.9% | viability, T/C [19]: 5.78% | viability, T/C [20]: 6.91% | viability, T/C [21]: 7.72% | viability, T/C [22]: 3.81% | viability, T/C [23]: 3.1% | viability, T/C [24]: 4.67%

C[C@@H](NC(=O)c1ncnc(N)c1Cl)c1ncc(C(=O)Nc2cc(C(F)(F)F)c(Cl)cn2)s1 + COc1c(OCCCN2CCOCC2)ccc2c3n(c(=NC(=O)c4cnc(N)nc4)nc12)CCN3
IC50 (second compound 0.00316 µM): > 10 µM | IC50 (second compound 0.01 µM): > 10 µM | IC50 (second compound 0.0316 µM): > 10 µM | IC50 (second compound 0.1 µM): < 0.0316 µM | IC50 (second compound 0.316 µM): < 0.0316 µM | IC50 (second compound 1 µM): < 0.0316 µM | viability, T/C [25]: 92.7% | viability, T/C [26]: 82.9% | viability, T/C [27]: 97.8% | viability, T/C [28]: 106% | viability, T/C [29]: 77.7% | viability, T/C [30]: 86.6% | viability, T/C [31]: 93.5% | viability, T/C [32]: 90.5% | viability, T/C [33]: 76.2% | viability, T/C [34]: 78.5% | viability, T/C [35]: 86.1% | viability, T/C [36]: 85% | viability, T/C [1]: 66.1% | viability, T/C [2]: 71.2% | viability, T/C [3]: 55.1% | viability, T/C [4]: 61.7% | viability, T/C [5]: 65.4% | viability, T/C [6]: 68.9% | viability, T/C [7]: 40.3% | viability, T/C [8]: 32.9% | viability, T/C [9]: 35.5% | viability, T/C [10]: 38.4% | viability, T/C [11]: 48% | viability, T/C [12]: 38.3% | viability, T/C [13]: 11.7% | viability, T/C [14]: 12.6% | viability, T/C [15]: 17.4% | viability, T/C [16]: 16% | viability, T/C [17]: 14.6% | viability, T/C [18]: 20.3% | viability, T/C [19]: 4.16% | viability, T/C [20]: 8.23% | viability, T/C [21]: 6.02% | viability, T/C [22]: 4.08% | viability, T/C [23]: 4.3% | viability, T/C [24]: 7.55%

CC(Cn1ccc(-c2ccc(C#N)c(Cl)c2)n1)NC(=O)c1cc(C(C)O)[nH]n1 (stereo not drawn) + CC(Nc1ccc2c(c1)OCCn1cc(N3C(=O)OCC3C(F)F)nc1-2)C(N)=O
IC50 (second compound 0.00316 µM): > 10 µM | IC50 (second compound 0.01 µM): > 10 µM | IC50 (second compound 0.0316 µM): > 10 µM | IC50 (second compound 0.1 µM): > 10 µM | IC50 (second compound 0.316 µM): > 10 µM | IC50 (second compound 1 µM): 0.25 µM | viability, T/C [25]: 92.5% | viability, T/C [26]: 91.2% | viability, T/C [27]: 83.2% | viability, T/C [28]: 79.1% | viability, T/C [29]: 88.5% | viability, T/C [30]: 59.3% | viability, T/C [31]: 114% | viability, T/C [32]: 85.7% | viability, T/C [33]: 92.1% | viability, T/C [34]: 73.5% | viability, T/C [35]: 92.2% | viability, T/C [36]: 63.2% | viability, T/C [1]: 125% | viability, T/C [2]: 98% | viability, T/C [3]: 76.2% | viability, T/C [4]: 83.2% | viability, T/C [5]: 90.6% | viability, T/C [6]: 62.7% | viability, T/C [7]: 83.1% | viability, T/C [8]: 76.5% | viability, T/C [9]: 76.2% | viability, T/C [10]: 72.1% | viability, T/C [11]: 87.7% | viability, T/C [12]: 67.2% | viability, T/C [13]: 65.8% | viability, T/C [14]: 65.7% | viability, T/C [15]: 55.2% | viability, T/C [16]: 57.3% | viability, T/C [17]: 60.2% | viability, T/C [18]: 53.5% | viability, T/C [19]: 87.2% | viability, T/C [20]: 56.4% | viability, T/C [21]: 46.8% | viability, T/C [22]: 46.1% | viability, T/C [23]: 54.7% | viability, T/C [24]: 41.4%
